{"source": "patent US7855076B2", "about": "“Use of discoidin domain receptor 1 (DDR1) and agents that affect the DDR1/collagen pathway” (The United States of America as represented by the …, priority 2002, dated 2010)", "assay_type_in_all_cases": "cell-based, human", "key": {"THP-1 cells [1]": {"test_system": "THP-1 cells", "assay": "Adherence of THP-1 cells to coated plates", "settings": "plates coated with fibronectin; DDR1a- and DDR1b-overexpressing cells", "protocol": "5×10^5 cells/ml were cultured on either BSA (10 mg/ml)- or collagen (20 μg/ml) and BSA-coated plates for 30 (FIG. 2A) or 120 minutes (FIG. 2B) at 37° C. in a 5% CO2 humidified incubator. Normal mouse IgG or anti-β1 integrin blocking IgG was added to measure the effect of β1 integrin in the assay. The number of adherent cells in each 400× visual field was counted. The results are presented as means ±SE of four individual fields. Data are representative of three experiments with two independent clones overexpressing either DDR1a or DDR1b.\nTo determine the effects of collagen on the functions of DDR1a- and DDR1b-overexpressing THP-1 cells, the cells were incubated on collagen-coated plastic plates. Twenty-four-well plates were coated with 100 μl/well human collagen type I (20 μg/ml) overnight at 4° C., and then with 200 μl/well 10 mg/ml bovine serum albumin (BSA) for 1 hour at 37° C. Cells were plated at the cell density of 1×10^5 cells/ml to the coated wells and were incubated for 30 minutes at 37° C. in 5% CO2 humidified atmosphere. Nonadherent cells were removed by washing three times with PBS. Cells that remained on the coated surface were considered to be adherent, and the number of cells in each 400 field was counted. Results were presented as mean ±SE per 400 field."}, "DDR1 mRNA": {"test_system": "DDR1 mRNA", "assay": "DDR1 mRNA expression in PBMC by Northern blotting", "settings": "8 hours, TNF-α 5 ng/ml, IL-1β 10 ng/ml, IFN-γ 50 U/ml, GM-CSF 10 ng/ml, LPS 1 μg/ml, PHA 5 μg/ml", "protocol": "PMN and PBMC were maintained at a density of 5×10^6 cells/ml in the complete medium in six-well tissue culture cluster (Coster, Cambridge, Mass.; 3 ml/well). Total RNA was extracted from each culture by using TRIZOL® Reagent. PolyA mRNA was purified on Oligotex columns (Qiagen, Valencia, Calif.). Northern blot analysis was performed as described (Yoshimura, J. Immunol. 150:5025, 1993), except that ULTRAhyb (Ambion) was used. A human DDR1 cDNA (757-bp) was obtained by PCR from a U-105 human glioblastoma cell line cDNA library and was ligated into the EcoRI/HindIII site of the pBluescript (Stratagene, La Jolla, Calif.). The sense primer was 5′-[…]-3′ (SEQ ID NO: 2; corresponding to residues between 68 and 87 in the nucleotide sequence of the trkE cDNA, GenBank accession number X74979) and the antisense primer was 5′-[…]-3′ (SEQ ID NO: 3; corresponding to residues between 805 and 824 in the nucleotide sequence of the trkE cDNA).\nFreshly isolated PBMC expressed only a low level of DDR1 mRNA. The expression level was increased about eightfold when the cells were incubated in either RPMI 1640 or RPMI 1640 containing 10% FCS."}, "DDR1 protein": {"test_system": "DDR1 protein", "assay": "DDR1 protein expression in leukocytes by immunoprecipitation and Western blotting", "protocol": "For Western blot analysis, cell lysates were prepared from freshly isolated PBMC, PBMC incubated overnight in RPMI 1640 containing 10% FCS, and MCF-7 cells. Cells were lysed on ice for 20 minutes in a buffer containing 50 mM Hepes, 150 mM NaCl, 1% Triton X-100, 10% glycerol, 10 mM NaF, 1 mM ethylenediamine tetraacetic acid, […], 1 mg/ml leupeptin, 1 mM phenylmethylsulfonyl fluoride, 1 mg/ml aprotinin, and 1 mg/ml pepstatin A. The lysates were spun, and the supernatants were collected. The samples were incubated with approximately 20 μl packed volume of PGS for 1 hour at 4° C. After centrifugation, supernatants were collected, mixed with 1 μg/ml normal rabbit IgG or polyclonal anti-human DDR1 IgG, and incubated for 1 hour at 4° C. PGS (20 μl) was then added and incubated for another 1 hour. IgG-coupled PGS was washed with the buffer containing 50 mM Hepes, 150 mM NaCl, 0.1% Triton X-100, 10% glycerol buffer three times, and 20 μl double-strength sample buffer (20% glycerol, 6% sodium dodecylsulfate (SDS), 10% 2-mercaptoethanol) was added. The samples were boiled for 10, minutes. Eluted proteins were analyzed on 7.5% polyacrylamide gels by SDS polyacrylamide gel electrophoresis (SDS-PAGE) and transferred electrophoretically to nitrocellulose membranes (Amersham, Arlington Heights, Ill.) at 200 mA for 2 hours by a semi-dry system. The membranes were incubated with polyclonal anti-human DDR1 or anti-phosphotyrosine IgG, followed by sheep anti-mouse IgG coupled with horseradish peroxidase (Amersham). Peroxidase activity was visualized by the Enhanced Chemiluminescence Detection System (Amersham).\nThere was no detectable DDR1 protein in freshly isolated PBMC. DDR1 protein was detected clearly after overnight incubation in RPMI 1640 containing 10% FCS. In order to study the kinetics of DDR1 protein expression, PBMC were incubated with or withour addition of TNF-α (5 ng/ml), or GM-CSF (10 ng/ml) for 36 hours and cell lysates were prepared. Cell lysates were subjected to immunoprecipitation with anti-DDR1 IgG or control IgG. […]"}, "DDR1": {"test_system": "DDR1", "assay": "Cell-surface DDR1 expression on PMN by flow cytometry", "settings": "24 hours", "protocol": "PMN were incubated in presence of IFN-γ or GM-CSF for 24 hours and the expression of cell-surface DDR1 was measured by flow cytometry using an antibody raised against the extracellular domain of the receptor. One hundred thousand cells were suspended in 50 μl of cold PBS containing 0.1% NaN3, […] BSA and 200 μg/ml human IgG in a Falcon 2052, tube, and incubated for 10 minutes on ice. One μg of anti-DDR1 rabbit polyclonal antibody raised aginst the N-terminus of DDR1 (Transgenic, Inc., Kumamoto, Japan), or control mouse IgG was added to each tube and the cells were incubated for another 15 minutes on ice. The cells were washed with PBS, and then incubated with 1 μg of FITC-conjugated goat anti-mouse IgG for 15 minutes on ice. At the end of incubation, PI was added to each tube (100 μM). The cells were washed by PBS, and subsequently analyzed by using a FACS scan (Becton Dickinson). Dead cells, determined by the incorporation of PI, were gated out. Results were processed by using the Cellquest software (Becton Dickinson)."}, "THP-1 cells [2]": {"test_system": "THP-1 cells", "assay": "Cell migration assay, 24-well BioCoat Insert Chamber", "settings": "parental, mock-infected and DDR1a-overexpressing THP-1 cells; MCP-1 10 ng/ml in outer wells, membrane only, 3 hours", "protocol": "Migration of each cell type in response to medium (open column) or MCP-1 (closed column) was measured in the 24-well BioCoat Insert Chamber as described in Example 1 below. In FIG. 3A, results are shown from experiments where inner wells and outer wells were separated by a membrane only. Chambers were incubated at 37° C. for 3 hours. In FIG. 3B, results are shown from experiments where approximately 3 mm of collagen lattice was created above the membrane. Chambers were incubated at 37° C. for 8 hours. The number of migrated cells was counted in each 400× magnified field. The results were presented as migration index denoting the fold increase of cell migration over control (the number of migrated parental cells=1). Data are representative of three experiments with two independent clones overexpressing either DDR1, a or DDR1b.\nThe cell migration assay was performed by using the 24-well BioCoat Insert Chamber (Becton Dickinson, Bedford, Mass.). […] After a 3-hour incubation at 37° C., the numbers of cells that were adhering on the other side of the membrane and also had fallen into the outer wells were counted. […] After an 8-hour incubation at 37° C., the numbers of cells that were adhering on the other side of the membrane and also had fallen into the outer wells were counted. […]"}, "PMN": {"test_system": "PMN", "assay": "MCP-1 release by PMN (neutrophils), ELISA", "protocol": "Human PMN and peripheral blood mononuclear cells (PBMC) were obtained from heparinized blood from human donors (10 units of heparin per ml of blood). One volume of 5% dextran (T-500 Pharmacia, Piscataway, N.J.) in phosphate buffered saline (PBS) was added to three volumes of blood in 50 ml polypropylene tubes. After a 40 minute incubation at room temperature, the leukocyte-rich plasma layer was removed and overlaid onto Lymphoprep in 50 ml tubes and the tubes were centrifuged at 800×g for 20 minutes at room temperature. PMN were separated from erythrocytes by lysis in 0.2% NaCl, washed in complete medium three times at 4° C. and resuspended in complete medium. PBMC contained in the PMN preparations obtained by this method were less than 0.5% by morphologic examination. Cell viability was higher than 98% by trypan blue staining.\nA panel of cytokines was previously tested for their ability to induce MCP-1 production in PMN and it was reported that TNF-α and IFN-γ could cooperate to induce a high level of MCP-1 production (Yamashiro et al., J. Leukoc. Biol. 69:698, 2001). […] The majority of MCP-1 was released between 24 hours and 48 hours, showing a delayed kinetics of MCP-1 release. […] The effect of IFN-γ was dose-dependent.\nTo confirm that activation of DDR1 was responsible for the increased release of MCP-1 by PMN treated with IFN-γ and collagen, 513 anti-DDR1 Ab was used instead of collagen. The concentrations of MCP-1 were measured in the Lymphokine Testing Laboratory, Clinical Services Program, SAIC-Frederick (Frederick, Md.) with an ELISA kit (R&D Systems) specific for human MCP-1."}}}
{"molecule": "fibronectin [reference compound]", "values": [{"measurement": "adherence or shape change", "setting": "THP-1 cells [1]", "result": "no effect"}]}
{"molecule": "GM-CSF: human recombinant granulocyte macrophage-colony stimulating factor", "values": [{"measurement": "level of DDR1 mRNA expression", "setting": "DDR1 mRNA", "result": "further augmented"}, {"measurement": "level of DDR1 protein expression", "setting": "DDR1 protein; PBMC, TNF-α 5 ng/ml or GM-CSF 10 ng/ml, 36 hours", "result": "increased"}, {"measurement": "DDR1 protein expression", "setting": "DDR1 protein; monocytes", "result": "increased"}, {"measurement": "level of DDR1 expression", "setting": "DDR1", "result": "slightly increased"}]}
{"molecule": "MCP-1: human recombinant monocyte chemoattractant protein-1", "values": [{"measurement": "migration of cells", "setting": "THP-1 cells [2]", "result": "increased two- to threefold"}]}
{"molecule": "IFN-γ: human recombinant interferon-γ (protein, UniProt P01579 24-161, looked up) Interferon gamma: QDPYVKEAENLKKYFNAGHSDVADNGTLFLGILKNWKEESDRKIMQSQIVSFYFKLFKNFKDDQSIQKSVETIKEDMNVKFFNSNKKKRDDFEKLTNYSVTDLNVQRKAIHELIQVMAELSPAAKTGKRKRSQMLFRG", "values": [{"measurement": "level of DDR1 mRNA expression", "setting": "DDR1 mRNA", "result": "partially inhibited"}, {"measurement": "MCP-1 production", "setting": "PMN; PMN on collagen-coated plates with IFN-γ", "result": "potent synergistic effect"}, {"measurement": "MCP-1 release", "setting": "PMN; PMN, IFN-γ alone, uncoated plates", "result": "no significant MCP-1 release"}, {"measurement": "dose dependence of effect on MCP-1 release", "setting": "PMN; PMN, collagen-coated plates", "result": "dose-dependent"}, {"measurement": "level of DDR1 expression", "setting": "DDR1", "result": "markedly increased"}]}
